{"source": "patent US20090018194A1", "about": "“Use of antimicrobial agents derived from alliaceous plants for the prevention and control of crop diseases, post-harvest rot and as environmental disinifectant products” (DMC Research Center, S.L., priority 2007, published 2009)", "key": {"[1]": {"test_system": "Penicillium expansum", "test": "post-harvest rotting of inoculated apples, drencher treatment", "assay_type": "in vivo", "details": "15 days of refrigeration at 5-6° C.", "method": "(§1) The effectiveness of the active principle PTS (in various individual doses) was studied in the control of post-harvest rotting of pears and apples caused by the fungi Botrytis cinerea and Penicillium expansum, the principal agents of diseases in these fruits. These phytopathogens can appear in fruit being stored in a cold room and, once in the processing plant and in a later phase, form colonies and are transferred from one fruit to another by contact. The study was performed by means of a controlled inoculation test to ensure a high percentage of affected fruits, and to guarantee that this level of infection is with certainty caused by these pathogens, thereby making it possible to detect and evaluate significant differences between the different treatments. […] To perform the controlled inoculation, wild strains of Botrytris cinerea and Penicillium expansum were used which were isolated in fruit and vegetable processing plants. […] After the time indicated above had passed, the various post-harvest treatments were carried out by means of […] 25° C. for 60 seconds."}, "[2]": {"test_system": "Botrytis cinerea", "test": "post-harvest rotting of inoculated apples, drencher treatment", "assay_type": "in vivo", "details": "15 days of refrigeration at 5-6° C.", "method": "as §1"}, "[3]": {"test_system": "Total mesophilic AEROBES", "test": "environmental disinfection of banana storage and ripening rooms by fogging, air sampling", "details": "fogging of 1500 ppm solution; for MICROBE COUNTS Total mesophilic AEROBES CFU/dish: 80 liters collected/dish; for % REDUCTION OF ENVIRONMENTAL MICROBIOTA Population of total mesophilic aerobes: after vs before treatment", "method": "A study was conducted to verify the environmental disinfecting capability of the compound PTS in rooms of a fruit and vegetable processing plant, in particular one that handled bananas. For test purposes, three separate rooms of the central were sampled, and the environmental quality was studied before and after the treatment with PTS. First, an environmental sample was taken in each room prior to the treatment, using an […]-Omega air sampling device manufactured by LCB, by suctioning a volume of air set at 80 L which impacted over the different cultivation media selected. The samples were taken in duplicate in the areas to be analyzed. PCA agar medium was used to count the total mesophilic aerobes, and the medium Rose Bengal agar was used to count the fungi. The environmental disinfectant treatment comprised fogging of a 1500 ppm solution of PTS. 5 liters of this solution were fogged for each 1000 m^3 of the room. […] Several hours after the fogging, the sampling operation was repeated in the different rooms that had been treated as described above. […] Once the incubation time had elapsed, the readings were taken by counting the microorganisms that appeared in each type of dish, expressed as cfu/dish."}, "[4]": {"test_system": "Penicillium sp. (CPC-PT-2)", "test": "agar diffusion test, wild fungi isolated from crown rot in bananas", "assay_type": "cell-based", "details": "incl. 6 mm disc"}, "[5]": {"test_system": "Bacillus megaterium ATCC 33085", "test": "agar diffusion test with impregnated cellulose discs", "assay_type": "cell-based", "details": "incl. 6 mm disc"}, "[6]": {"test_system": "Candida magnoliae DSMZ 70638", "test": "agar diffusion test with impregnated cellulose discs", "assay_type": "cell-based", "details": "incl. 6 mm disc"}, "[7]": {"details": "Zone 1 of the ripening room after treatment"}, "[8]": {"details": "Zone 2 of the ripening room after treatment"}}, "data": [{"smiles": "CCCS[S+]([O-])CCC", "note": "(stereo not shown) [PTS, Propyl Propyl Thiosulfinate]", "values": [{"measurement": "% of fruit affected", "setting": "[1]; Golden Delicious, 500 ppm", "value": 1.4, "unit": "%"}, {"measurement": "% of fruit affected", "setting": "[1]; Golden Delicious, 666 ppm", "value": 0.5, "unit": "%"}, {"measurement": "% of fruit affected", "setting": "[1]; Golden Delicious, 833 ppm", "value": 2.5, "unit": "%"}, {"measurement": "% of fruit affected", "setting": "[1]; Golden Delicious, 1666 ppm", "value": 0.7, "unit": "%"}, {"measurement": "% of fruit affected", "setting": "[1]; Red Chief, 500 ppm", "value": 2.8, "unit": "%"}, {"measurement": "% of fruit affected", "setting": "[1]; Red Chief, 666 ppm", "value": 0, "unit": "%"}, {"measurement": "% of fruit affected", "setting": "[1]; Red Chief, 833 ppm", "value": 3.2, "unit": "%"}, {"measurement": "% of fruit affected", "setting": "[1]; Red Chief, 1666 ppm", "value": 2.4, "unit": "%"}, {"measurement": "% of fruit affected", "setting": "[2]; Golden Delicious, 500 ppm", "value": 0.5, "unit": "%"}, {"measurement": "% of fruit affected", "setting": "[2]; Golden Delicious, 666 ppm", "value": 0, "unit": "%"}, {"measurement": "% of fruit affected", "setting": "[2]; Golden Delicious, 833 ppm", "value": 1, "unit": "%"}, {"measurement": "% of fruit affected", "setting": "[2]; Golden Delicious, 1666 ppm", "value": 0, "unit": "%"}, {"measurement": "% of fruit affected", "setting": "[2]; Red Chief, 500 ppm", "value": 1, "unit": "%"}, {"measurement": "% of fruit affected", "setting": "[2]; Red Chief, 666 ppm", "value": 0, "unit": "%"}, {"measurement": "% of fruit affected", "setting": "[2]; Red Chief, 833 ppm", "value": 1.5, "unit": "%"}, {"measurement": "% of fruit affected", "setting": "[2]; Red Chief, 1666 ppm", "value": 0, "unit": "%"}, {"measurement": "MICROBE COUNTS Total mesophilic AEROBES CFU/m^3", "setting": "[3]; Entry room after treatment", "value": 314, "unit": "CFU/m^3"}, {"measurement": "MICROBE COUNTS Total mesophilic AEROBES CFU/dish", "setting": "[3]; Entry room after treatment", "value": 24, "unit": "CFU/dish"}, {"measurement": "% REDUCTION OF ENVIRONMENTAL MICROBIOTA Population of total mesophilic aerobes", "setting": "[3]; Entry room", "value": 65, "unit": "%"}, {"measurement": "MICROBE COUNTS Total mesophilic AEROBES CFU/m^3", "setting": "[3]; [7]", "value": 287, "unit": "CFU/m^3"}, {"measurement": "MICROBE COUNTS Total mesophilic AEROBES CFU/dish", "setting": "[3]; [7]", "value": 22, "unit": "CFU/dish"}, {"measurement": "% REDUCTION OF ENVIRONMENTAL MICROBIOTA Population of total mesophilic aerobes", "setting": "[3]; Zone 1 of the ripening room", "value": 69, "unit": "%"}, {"measurement": "MICROBE COUNTS Total mesophilic AEROBES CFU/m^3", "setting": "[3]; [8]", "value": 1487, "unit": "CFU/m^3"}, {"measurement": "MICROBE COUNTS Total mesophilic AEROBES CFU/dish", "setting": "[3]; [8]", "value": 96, "unit": "CFU/dish"}, {"measurement": "% REDUCTION OF ENVIRONMENTAL MICROBIOTA Population of total mesophilic aerobes", "setting": "[3]; Zone 2 of the ripening room", "value": 58, "unit": "%"}, {"measurement": "diameter of the microbial inhibition halo", "setting": "[4]; 30 ppm", "value": 0, "unit": "mm"}, {"measurement": "diameter of the microbial inhibition halo", "setting": "[4]; 60 ppm", "value": 0, "unit": "mm"}, {"measurement": "diameter of the microbial inhibition halo", "setting": "[4]; 125 ppm", "value": 0, "unit": "mm"}, {"measurement": "diameter of the microbial inhibition halo", "setting": "[4]; 250 ppm", "value": 15, "unit": "mm"}, {"measurement": "diameter of the microbial inhibition halo", "setting": "[4]; 500 ppm", "value": 25, "unit": "mm"}, {"measurement": "diameter of the microbial inhibition halo", "setting": "[4]; 1000 ppm", "value": 25, "unit": "mm"}, {"measurement": "diameter of the microbial inhibition halo", "setting": "[5]; 25 ppm", "value": 23, "unit": "mm"}, {"measurement": "diameter of the microbial inhibition halo", "setting": "[5]; 50 ppm", "value": 27, "unit": "mm"}, {"measurement": "diameter of the microbial inhibition halo", "setting": "[5]; 100 ppm", "value": 34, "unit": "mm"}, {"measurement": "diameter of the microbial inhibition halo", "setting": "[6]; 25 ppm", "value": 22, "unit": "mm"}, {"measurement": "diameter of the microbial inhibition halo", "setting": "[6]; 50 ppm", "value": 30, "unit": "mm"}, {"measurement": "diameter of the microbial inhibition halo", "setting": "[6]; 100 ppm", "value": 38, "unit": "mm"}]}]}
